Common to all, as to format: functional
For assay [1], the system named is Escherichia coli. Briefly: Antimicrobial activity against Escherichia coli R4525 expressing gyrA S83L and D87Y and parC S80I and E84G mutant gene by CLSI method.
For assay [2], the system named is Escherichia coli. Put plainly: Antimicrobial activity against Escherichia coli J53 transconjugate by CLSI method.
For assay [3], the system named is Escherichia coli. Briefly: Antimicrobial activity against azide-resistant Escherichia coli J53 by CLSI method.

Our source for the MIC values is ChEMBL document CHEMBL1275471, “ISEcp1-mediated transposition of qnrB-like gene in Escherichia coli” (2008).

≈ marks a conversion by molar mass, not a printed value. Where only a bound is given, the exact number is not on record here.

One may read the MIC as the smallest concentration in the dilution series that meets the test's criterion for growth inhibition. A low value points to a more susceptible organism. Regarding `CC1COc2c(N3CCN(C)CC3)c(F)cc3c(=O)c(C(=O)O)cn1c23` (stereo not drawn) [OFLOXACIN], the MIC in the assay on Escherichia coli [1] was above 32 mg/L.
For `CCn1cc(C(=O)O)c(=O)c2ccc(C)nc21` [NALIDIXIC ACID], the results for the minimum inhibitory concentration (MIC) in the assay on Escherichia coli [2], with Escherichia coli [1] and against Escherichia coli [3] were 32 mg/L (≈ 138 µM), above 256 mg/L and 4 mg/L (≈ 17.2 µM), respectively.
In the case of `C[C@@H]1CN(c2c(F)c(N)c3c(=O)c(C(=O)O)cn(C4CC4)c3c2F)C[C@H](C)N1` [SPARFLOXACIN], the minimal inhibitory concentration (MIC) with Escherichia coli [2] is 1 mg/L (≈ 2.55 µM); with Escherichia coli [1] it was above 32 mg/L; against Escherichia coli [3], 0.01 mg/L (≈ 0.0255 µM).
On to `CCn1cc(C(=O)O)c(=O)c2cc(F)c(N3CCNCC3)cc21` [NORFLOXACIN], for which the results for the MIC against Escherichia coli [2], in the assay with Escherichia coli [1] and with Escherichia coli [3] were 1 mg/L (≈ 3.13 µM), above 256 mg/L and 0.12 mg/L (≈ 0.376 µM), respectively.
Turning to `CCN1CCN(c2cc3c(cc2F)c(=O)c(C(=O)O)cn3C2CC2)CC1` [ENROFLOXACIN], the minimum inhibitory concentration (MIC) with Escherichia coli [2] is 0.5 mg/L (≈ 1.39 µM); against Escherichia coli [1] it was above 32 mg/L; in the assay with Escherichia coli [3] it was 0.01 mg/L (≈ 0.0278 µM).
